Assay results as given in PMC5129982, “Screen-identified selective inhibitor of lysine demethylase 5A blocks cancer cell growth and drug resistance” (Oncotarget, 2016).

How the values were obtained:
PC9 cells = assay: Colony formation assay, PC9 (gefitinib tolerance); format: cell-based, human
Protocol: (§1) Cells were seeded in 6-well plates at low density: HeLa, MCF7, BT474, and PC9 cells at 1000, 2000, 2500, and 2000 cells/well respectively. Media containing the prescribed drugs or 0.1% DMSO was replaced every 3 days. Trastuzumab was used at 5 μg/ml. Gefitinib was used at 2 μM. YUKA1 was used at 50 or 100 μM. Doxycycline was used at 1 μg/ml for 3 days. After 7–42 days depending on the rate of cell growth, cells were fixed in 4% para-formaldehyde in phosphate-buffered saline for 10 minutes rocking at room temperature. They were incubated in 0.05% crystal violet in double-distilled water for 30 minutes rocking at room temperature, washed with water, and dried 24 hours before photographing. ColonyArea, a plugin for ImageJ software, was used for quantification. Unpaired, two-tailed student's t-test calculated using GraphPad Prism 6.0 software was used to determine significance.

[1] = tested on: H3K4 methylation in HeLa cells; assay: Western blot of global H3K4 methylation, HeLa; format: cell-based, human; conditions: for H3K4me3 Fold (H3K4me3/Total H3, normalized to DMSO): 48 hr
Protocol: (§2) Cells were lysed as described previously. Histones were separated by centrifugation, resuspended in Laemmeli buffer, and sonicated. Protein concentration of cell lysates was measured by Bradford assay. Samples in Laemmeli buffer were boiled 10 minutes at 95°C and loaded onto 7% (whole cell lysates) or 18% (histones) SDS-PAGE gels. Membranes were blocked in 4% non-fat milk in Tris-buffered saline with 0.05% Tween (TBS-T) and incubated with primary antibodies in the same buffer or 5% bovine serum albumin in TBS-T overnight at 4°C. Membranes were incubated with secondary anti-rabbit or anti-mouse antibodies for one hour at room temperature. Blots were visualized by Thermo Scientific Pierce ECL Western Blotting Substrate (32106) or EMD Millipore Immobilon Western Chemiluminescent HRP Substrate (WBKLS0100) on film. Signal was quantified using ImageJ software.

His-FLAG-KDM6A (UTX) = biological target: T1, His-FLAG-KDM6A (UTX) (Homo sapiens, UniProt O15550); assay: AlphaScreen KDM6A demethylation assay; format: biochemical
T1 construct: Full-length FLAG-KDM5B, FLAG-KDM5C, and His-FLAG-KDM6A production was detailed previously; His (N); FLAG (N); made in house
Protocol: Histone demethylase assays were performed as described previously, with the exception of all enzyme reactions containing 125 μM α-KG. Enzymes were used at the following approximate concentrations in validation experiments, chosen based on their activity in AlphaScreen assays: 19 nM FLAG-KDM5A, 15 nM FLAG-KDM5B, 6 nM FLAG-KDM5C, 29 nM His-FLAG-KDM6A, and 16 nM FLAG-KDM6B. 24 nM FLAG-KDM5A was used for Km determination experiments. Reactions were carried out for 1 hour, or were stopped by addition of 30 mM EDTA every 5 minutes for determining enzyme kinetics. Km values were calculated using the Michaelis-Menten non-linear regression analysis on GraphPad Prism 6.0 software. The concentration of DMSO in demethylation reactions was 0.05%. For reactions with catalase, catalase (Sigma C30) or an equal volume of dilution buffer was added to the peptide-containing buffer before addition of the demethylase. The final concentration of catalase in the reactions was 0.01 mg/ml.
(§3) The AlphaScreen general IgG (protein A) detection kit from PerkinElmer Life Sciences was used as described previously. The luminescence emission was recorded at 570 nm using the AlphaScreen optic module on a Pherastar (BMG Labtech) or Envision (PerkinElmer Life Sciences) microplate reader.

ZR-75-1 cells = assay: WST-1 proliferation assay, ZR-75-1; format: cell-based, human; conditions: ZR-75-1, 5 days of treatment
Protocol: (§4) WST-1 reagent from Roche Applied Sciences (11644807001) was used to measure cell number before drug addition and after 3 or 5 days of growth as described previously. Cells were seeded in 96-well plates at the following number of cells per well: HeLa (2000), MCF7 (2000), ZR-75-1 (1000), MCF10A (1000), MDA-MB-231(5000). DMSO was used at 0.1%. Relative absorbance was calculated by subtracting the average background (media only) signal, dividing by the average signal on day 0, and then dividing by the average day 5/day 0 ratio for the DMSO controls. Significance was calculated by unpaired, two-tailed student's t-test using GraphPad Prism 6.0 software.

full-length FLAG-KDM5A = biological target: T2, full-length FLAG-KDM5A (Homo sapiens, UniProt P29375); assay: AlphaScreen KDM5A demethylation assay; format: biochemical; conditions: for inhibition at 2 µM: 2 μM compound
T2 construct: Sf21 insect cells were infected with baculovirus to express full-length FLAG-KDM5A; made in house; host or cells: Sf21 insect cells (baculovirus)
Source text: AlphaScreen technology (PerkinElmer) was utilized to perform a screen for small molecule inhibitors of KDM5A. The assay was comprised of two steps, a demethylation reaction followed by detection of the product. A biotinylated H3K4me3 peptide was used as substrate in the demethylation reaction with KDM5A in the presence or absence of small molecule inhibitors. The presence of peptide product (H3K4me1/2) was detected using a product-specific antibody and beads. For this, acceptor beads coated in protein A bound to the antibody, which recognized the peptide product. Donor beads coated in streptavidin bound biotin on the peptide substrate. If the demethylation reaction occurred, the beads were in very close proximity and laser excitation of the donor beads at 680nm caused a transfer of energy in the form of reactive singlet oxygen, resulting in emission by the acceptor beads between 520–620 nm ([30, 31], Figure 1A). The luminescent signal detected was a proxy for the amount of demethylation that occurred.
Reactions were carried out for 1 hour, or were stopped by addition of 30 mM EDTA every 5 minutes for determining enzyme kinetics. Km values were calculated using the Michaelis-Menten non-linear regression analysis on GraphPad Prism 6.0 software. The concentration of DMSO in demethylation reactions was 0.05%. For reactions with catalase, catalase (Sigma C30) or an equal volume of dilution buffer was added to the peptide-containing buffer before addition of the demethylase. The final concentration of catalase in the reactions was 0.01 mg/ml.
as §3
IC50 values were calculated by log transformation and non-linear regression log(inhibitor) versus response(three parameters) using Graphpad Prism 6.0 software.

[2] = tested on: H3K4 methylation in MDA-MB-231 cells; assay: Western blot of global H3K4 methylation, MDA-MB-231; format: cell-based, human; conditions: MDA-MB-231, 72 hr treatment
Protocol: as §2

MCF10A cells = assay: WST-1 proliferation assay, MCF10A; format: cell-based, human; conditions: 5 days of treatment
Protocol: as §4

HeLa cells = assay: Colony formation assay, HeLa; format: cell-based, human; conditions: two-week treatment, 50 or 100 μM
Protocol: as §1

T2 sequence (P29375 whole entry): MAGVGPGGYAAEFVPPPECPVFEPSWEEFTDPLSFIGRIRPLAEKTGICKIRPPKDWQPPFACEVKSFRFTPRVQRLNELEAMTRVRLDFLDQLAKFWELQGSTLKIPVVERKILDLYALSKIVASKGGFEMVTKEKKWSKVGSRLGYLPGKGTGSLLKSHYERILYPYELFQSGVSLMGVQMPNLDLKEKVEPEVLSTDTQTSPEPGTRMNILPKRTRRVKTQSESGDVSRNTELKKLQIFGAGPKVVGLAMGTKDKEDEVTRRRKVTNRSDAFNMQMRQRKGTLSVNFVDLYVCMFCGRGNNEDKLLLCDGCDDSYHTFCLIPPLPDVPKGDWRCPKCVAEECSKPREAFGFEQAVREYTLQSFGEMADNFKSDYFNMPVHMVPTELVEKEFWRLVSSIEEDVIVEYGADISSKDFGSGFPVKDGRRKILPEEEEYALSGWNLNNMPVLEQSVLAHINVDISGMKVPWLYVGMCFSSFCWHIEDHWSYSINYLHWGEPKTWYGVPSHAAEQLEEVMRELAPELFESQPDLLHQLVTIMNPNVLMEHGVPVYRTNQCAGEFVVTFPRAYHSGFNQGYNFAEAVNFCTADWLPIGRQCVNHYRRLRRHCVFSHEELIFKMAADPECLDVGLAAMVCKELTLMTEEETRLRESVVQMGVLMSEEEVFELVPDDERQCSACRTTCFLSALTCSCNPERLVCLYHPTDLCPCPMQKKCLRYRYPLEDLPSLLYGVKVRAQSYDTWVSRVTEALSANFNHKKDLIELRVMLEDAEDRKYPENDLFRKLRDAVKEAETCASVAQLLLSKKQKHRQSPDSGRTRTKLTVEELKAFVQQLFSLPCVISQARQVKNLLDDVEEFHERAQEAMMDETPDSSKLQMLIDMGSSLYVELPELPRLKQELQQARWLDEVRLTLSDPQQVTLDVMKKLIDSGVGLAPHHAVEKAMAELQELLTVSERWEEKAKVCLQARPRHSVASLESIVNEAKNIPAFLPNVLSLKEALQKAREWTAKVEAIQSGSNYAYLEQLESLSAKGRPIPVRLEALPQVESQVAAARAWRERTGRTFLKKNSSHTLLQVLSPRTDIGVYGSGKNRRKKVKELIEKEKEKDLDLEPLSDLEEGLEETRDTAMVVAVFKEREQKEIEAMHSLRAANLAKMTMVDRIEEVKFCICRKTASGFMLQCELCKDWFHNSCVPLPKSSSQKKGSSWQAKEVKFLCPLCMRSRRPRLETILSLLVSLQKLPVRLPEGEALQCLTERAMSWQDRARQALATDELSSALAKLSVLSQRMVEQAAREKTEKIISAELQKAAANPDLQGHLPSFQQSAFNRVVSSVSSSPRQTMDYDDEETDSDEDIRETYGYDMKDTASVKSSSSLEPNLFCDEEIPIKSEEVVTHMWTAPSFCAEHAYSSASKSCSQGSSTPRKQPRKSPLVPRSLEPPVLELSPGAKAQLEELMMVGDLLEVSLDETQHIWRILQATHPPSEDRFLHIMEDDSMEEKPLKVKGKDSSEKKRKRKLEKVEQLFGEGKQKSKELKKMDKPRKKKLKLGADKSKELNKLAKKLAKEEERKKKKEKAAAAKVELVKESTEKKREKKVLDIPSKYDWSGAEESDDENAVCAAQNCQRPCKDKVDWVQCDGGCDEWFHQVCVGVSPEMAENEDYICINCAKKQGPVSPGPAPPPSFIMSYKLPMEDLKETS
T1 sequence (O15550 whole entry): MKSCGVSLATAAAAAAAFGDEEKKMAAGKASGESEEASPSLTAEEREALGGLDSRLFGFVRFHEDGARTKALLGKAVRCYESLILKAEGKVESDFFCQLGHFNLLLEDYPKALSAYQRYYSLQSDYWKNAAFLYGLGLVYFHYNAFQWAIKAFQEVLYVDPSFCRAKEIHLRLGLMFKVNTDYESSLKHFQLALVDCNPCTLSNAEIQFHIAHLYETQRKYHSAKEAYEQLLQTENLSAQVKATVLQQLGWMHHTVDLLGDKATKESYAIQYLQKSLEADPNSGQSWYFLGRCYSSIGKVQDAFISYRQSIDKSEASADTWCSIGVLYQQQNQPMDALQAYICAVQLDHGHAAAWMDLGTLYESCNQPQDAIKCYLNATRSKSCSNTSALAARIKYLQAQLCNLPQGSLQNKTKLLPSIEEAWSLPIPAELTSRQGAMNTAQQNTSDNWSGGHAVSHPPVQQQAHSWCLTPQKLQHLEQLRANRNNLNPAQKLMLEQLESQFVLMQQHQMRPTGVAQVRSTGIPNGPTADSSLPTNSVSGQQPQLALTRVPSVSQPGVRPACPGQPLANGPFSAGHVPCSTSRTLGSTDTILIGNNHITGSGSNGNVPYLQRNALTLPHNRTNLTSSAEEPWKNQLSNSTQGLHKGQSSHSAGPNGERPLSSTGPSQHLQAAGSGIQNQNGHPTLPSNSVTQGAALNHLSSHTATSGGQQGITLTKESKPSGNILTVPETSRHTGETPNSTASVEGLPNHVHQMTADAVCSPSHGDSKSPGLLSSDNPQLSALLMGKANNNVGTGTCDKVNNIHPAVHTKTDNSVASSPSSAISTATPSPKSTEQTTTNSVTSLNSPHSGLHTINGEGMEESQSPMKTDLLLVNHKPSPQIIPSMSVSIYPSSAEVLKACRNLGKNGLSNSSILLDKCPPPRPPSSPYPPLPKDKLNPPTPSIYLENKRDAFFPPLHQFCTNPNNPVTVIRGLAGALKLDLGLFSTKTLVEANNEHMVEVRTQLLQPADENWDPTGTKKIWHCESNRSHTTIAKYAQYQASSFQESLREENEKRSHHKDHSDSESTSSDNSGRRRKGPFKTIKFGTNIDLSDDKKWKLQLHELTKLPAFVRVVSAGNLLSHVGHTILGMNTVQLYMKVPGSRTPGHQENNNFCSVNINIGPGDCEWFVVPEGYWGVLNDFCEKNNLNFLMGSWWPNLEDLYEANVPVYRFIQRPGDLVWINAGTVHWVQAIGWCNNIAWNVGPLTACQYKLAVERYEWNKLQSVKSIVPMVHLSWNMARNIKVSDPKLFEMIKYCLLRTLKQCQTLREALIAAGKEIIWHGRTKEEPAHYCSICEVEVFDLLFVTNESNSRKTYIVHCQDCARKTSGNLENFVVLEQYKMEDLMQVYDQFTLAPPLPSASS

IC50 (His-FLAG-KDM6A (UTX)): > 50000 nM | mode of inhibition with respect to Fe(II) (full-length FLAG-KDM5A): uncompetitive with respect to Fe(II) | change of IC50 over a 16-fold range of α-KG concentrations (full-length FLAG-KDM5A; 150 nM H3K4me3 peptide, 50 μM Fe(II)): did not change significantly | inhibition at 2 µM (full-length FLAG-KDM5A; 50 μM Fe(II)): ~70% | inhibition at 2 µM (full-length FLAG-KDM5A; low Fe(II)): ~25% | enzyme inhibition at low Fe(II) (full-length FLAG-KDM5A; 5 μM Fe(II)): too weak to generate robust IC50 curves | effect of catalase on inhibitory potency against KDM5A (full-length FLAG-KDM5A; 0.01 mg/ml catalase): did not affect | IC50 (full-length FLAG-KDM5A; AlphaScreen, 1 hour reaction, 0.05–50 μM compound): 2660 nM
SMILES: C=CCOc1c(CNn2cnnc2S)cccc1OC [YUKA1, 4-([2-(allyloxy)-3-methoxybenzyl]amino)-4H-1,2,4-triazole-3-thiol]
cell growth, compound alone (PC9 cells; PC9, 7 days): not significantly affected | colony formation during long-term gefitinib treatment (PC9 cells; PC9, plus 2 μM gefitinib, 35 days): fewer YUKA1-treated cells formed colonies | H3K4me2 and H3K4me1 levels ([1]; HeLa): increased | cell activity by global H3K4 methylation changes ([1]; HeLa and MCF7 cells, western blot): cell-active | H3K4me3 Fold (H3K4me3/Total H3, normalized to DMSO) ([1]; HeLa, 50 μM): 3.0 | H3K4me3 Fold (H3K4me3/Total H3, normalized to DMSO) ([1]; HeLa, 100 μM): 3.2 | global H3K4me3 levels ([1]; HeLa, 48 hour treatment): dose-dependent increase | cell proliferation (ZR-75-1 cells): decreased cell proliferation | H3K4 methylation [2]: only minor changes | cell proliferation (MCF10A cells): did not hinder cell proliferation | number of colonies formed compared to DMSO (HeLa cells): significantly reduced
